Literature values as cited in patent publication US20060172021A1, “Herbal compositions for the prevention or treatment of symptoms of stress and infection” (priority 2005, published 2006).

Tests used:
female mice = settings: mouse, in vivo
[1] = tested on: human progesterone production

Compound	Inhibition of prostaglandin synthesis (prostaglandin synthesis)	further results
C=C1CC[C@@H]2[C@](C)(CO)[C@H](O)CC[C@@]2(C)[C@@H]1/C=C/C1=CCOC1=O [dehydroandrographolide]		Dose required to affect pregnancy (female mice): 250 mg/kg. of body weight. This amount of pure
CCCCCC(=O)CC(=O)CCc1ccc(O)c(OC)c1 [gingerdione]	potent inhibitors	
CCCCCC(=O)/C=C(O)/C=C\c1ccc(O)c(OC)c1 [dehydrogingerdione]	potent inhibitors	
CCCCC[C@H](O)CC(=O)CCc1ccc(O)c(OC)c1 [gingerol]	potent inhibitors	
andrographolide sodium succinate		Detrimental effects on other normal human tissue [1]: intended for. There were no detrimental effects; Inhibition of human progesterone production ([1]; cultured human placental tissue): (derived from AP) was effective in inhibiting
